From US12604893B2, “Compositions and methods for modulating microbiomes” (BOYCE THOMPSON INSTITUTE FOR PLANT RESEARCH, INC., priority 2019, dated 2026)

Experiments:
P. fluorescens = test: Bacterial growth assay, media supplemented with ascarosides; assay type: cell-based
Source text: (§1) To test whether bacteria respond to ascarosides, a simple growth assay was utilized. […] Enhanced growth and rhizosphere colonization of P. fluorescens has been observed in the presence of nematodes (Knox, et al. (2004) Appl. Environ. Microbiol., 70:4666-4671) and this may be due to ascr #18 excretion. Next, a wider selection of bacterial species from soil and human environments, including P. tabacum, P. fluorescens, S. marcescens, E. faecalis, and B. subtilis, was studied. […] In contrast to ascr #18, the effects of other ascarosides such as ascr #9, ascr #10, and ascr #3 were species-specific.

S. marcescens = test: as above; assay type: cell-based
Source text: as §1

B. subtilis = test: as above; assay type: cell-based; conditions: FIG. 1B
Description: (§2) FIG. 1A provides a graph and images of P. syringae growth. Bacterial growth media were supplemented with different concentrations of ascarosides. Ten-fold serially diluted bacterial cells were plated and bacterial growth and quantification was performed 3 days post incubation. FIG. 1B provides images of B. subtilis growth. Bacterial growth media were supplemented with different concentrations of ascarosides. Ten-fold serially diluted bacterial cells were plated and bacterial growth and quantification was performed 18 hours post incubation. FIG. 1C provides a graph showing biofilm formation of S. marcescens in the presence of 1 nM of ascr #3, ascr #9, ascr #10, and ascr #18. *P<0.05, **P<0.001, two-tailed t-test. Bacterial growth and biofilm assays have been independently repeated at least three times.
as §1

soil microbiome = test: Soil samples treated with ascr #18, microbial DNA sequencing (16s rRNA, ITS); conditions: low nanomolar concentrations, 24 hours; preliminary analyses
Description: (§3) To investigate whether ascarosides affect soil microbiomes, soil samples were collected from sites free from pesticide and fertilizer applications to ensure inclusion of a representative diversity of natural microbes (Panke-Buisse, et al. (2015) ISME J., 9:980-9; Lebeis, et al. (2015) Science 349:860-864). The soil samples were treated with low nanomolar concentrations of ascr #18 for 24 hours followed by microbial DNA and metabolome extraction. DNA sequencing was performed by targeting conserved 16s rRNA for bacteria and internal transcribed spacer (ITS) gene for fungi (Panke-Buisse, et al. (2015) ISME J., 9:980-9).

[1] = test system: Agrobacterium tumefaciens; test: Microbial metabolism of ascr #18; assay type: in vitro ADME
Description: (§4) To identify which specific microbes from the soil are responsible for ascr #18 metabolism, the effect of ascr #18 on individual microbes was tested. Bacteria and fungi in the soil interact with nematodes in diverse ways (Lakshmanan, et al. (2014) Plant Physiol., 166:689-700; Knox, et al. (2004) Appl. Environ. Microbiol., 70:4666-4671; Siddiqui, et al. (1999) Bioresour. Technol., 69:167-179). Microbial metabolism of ascr #18 was assessed in three bacteria, E. coli, Agrobacterium tumefaciens, and P. syringae and two fungi, Aspergillus fumigatus and A. flavus, all of which are commonly found in soil. […] Whereas, like fungi, all tested plants and animals are capable of metabolizing ascr #18, it appears that bacteria (and perhaps other prokaryotes) lack this ability.

A. flavus = test: Microbial metabolism of ascr #18; assay type: in vitro ADME
Description: as §4

P. syringae [2] = test: Microbial metabolism of ascr #18; assay type: in vitro ADME
Description: as §4

Aspergillus fumigatus = test: Microbial metabolism of ascr #18; assay type: in vitro ADME
Description: as §4

E. coli [3] = test: Microbial metabolism of ascr #18; assay type: in vitro ADME
Description: as §4

soil samples = test: Comparative metabolomics of soil samples treated with ascr #18; assay type: in vitro ADME
Description: as §3, §4

P. tabacum = test: Bacterial growth assay, media supplemented with ascarosides; assay type: cell-based
Source text: as §1

E. faecalis = test: as above; assay type: cell-based
Source text: as §1

E. coli [4] = test: as above; assay type: cell-based; conditions: growth media supplemented with 1 and 10 nM
Source text: as §1

A. tumefaciens = test: as above; assay type: cell-based; conditions: growth media supplemented with 1 and 10 nM
Source text: as §1

P. syringae [5] = test: as above; assay type: cell-based; conditions: growth media supplemented with 1 and 10 nM; FIG. 1A
Description: as §2, §1

Row | Compound | bacterial growth of P. fluorescens (P. fluorescens) | bacterial growth of S. marcescens (S. marcescens) | bacterial growth of B. subtilis (B. subtilis) | effect on microbial composition of the soil (soil microbiome) | metabolism of ascr #18 by Agrobacterium tumefaciens [1] | metabolism of ascr #18 by A. flavus (A. flavus) | metabolism of ascr #18 by P. syringae (P. syringae [2]) | metabolism of ascr #18 by Aspergillus fumigatus (Aspergillus fumigatus) | metabolism of ascr #18 by E. coli (E. coli [3]) | metabolism of ascr #18 in soil samples (soil samples) | bacterial growth of P. tabacum (P. tabacum) | bacterial growth of E. faecalis (E. faecalis) | bacterial growth of E. coli (E. coli [4]) | bacterial growth of A. tumefaciens (A. tumefaciens) | bacterial growth of P. syringae (P. syringae [5])
1 | C[C@H](CCC(=O)O)O[C@@H]1O[C@@H](C)[C@H](O)C[C@H]1O [ascr #9] | suppressed | promoted growth | suppressed | – | – | – | – | – | – | – | – | – | – | – | –
2 | CC1O[C@@H](O[C@H](C)CCCCCCC(=O)O)C(O)C[C@H]1O (stereo partly drawn) [ascr #10] | suppressed | promoted growth | suppressed | – | – | – | – | – | – | – | – | – | – | – | –
3 | CC1O[C@@H](O[C@@H](C)CCCCCCCCC(=O)O)C(O)C[C@H]1O (stereo in doubt) [ascr #18, (10R)-(3′R,5′R-dihydroxy-6'S-methyl-(2H)-tetrahydropyran-2-yloxy)-undecanoic acid] | generally promoted growth | generally promoted growth | generally promoted growth | shifts microbial composition of the soil | none of the bacteria were able to metabolize | metabolized into shorter-chained ascarosides | none of the bacteria were able to metabolize | metabolized into shorter-chained ascarosides | none of the bacteria were able to metabolize | extensively edited into shorter side-chained ascarosides | generally promoted growth | generally promoted growth | not affected | not affected | significant growth increase
4 | CC1O[C@@H](O[C@H](C)CCCC/C=C/C(=O)O)C(O)C[C@H]1O (stereo partly drawn) [ascr #3] | suppressed | promoted growth | suppressed | – | – | – | – | – | – | – | – | – | – | – | –
